# Source: ChEMBL document CHEMBL4610081, “Anti-inflammatory Metabolites from Chaetomium nigricolor” (J Nat Prod, 2020)
# Legend:
# RAW264.7 [1] = experiment: Inhibition of LPS-induced p38 MAPK protein expression in mouse RAW264.7 cell at 2.5 uM preincubated for 3 hrs followed by LPS-stimulation and measured after 1 hr by Western blot analysis (reference value: 1.1); type: functional
# RAW264.7 [2] = experiment: Trans-suppression of NFkappaB in mouse RAW264.7 cells assessed as LPS-induced nuclear-p65 level at 5 uM preincubated for 3 hrs followed by LPS-stimulation and measured after 1 hr by Western blot analysis (reference value: 3.3); type: cell-based
# RAW264.7 [3] = experiment: Inhibition of LPS-induced p38 MAPK protein expression in mouse RAW264.7 cell at 10 uM preincubated for 3 hrs followed by LPS-stimulation and measured after 1 hr by Western blot analysis (reference value: 1.1); type: functional
# RAW264.7 [4] = experiment: Inhibition of LPS-induced ERK phosphorylation in mouse RAW264.7 cell at 10 uM preincubated for 3 hrs followed by LPS-stimulation and measured after 1 hr by Western blot analysis (reference value: 6.92); type: cell-based
# RAW264.7 [5] = experiment: Antiinflammatory activity against mouse RAW264.7 cells assessed as inhibition of LPS-induced PGE2 production preincubated for 3 hrs followed by LPS-stimulation and measured after 24 hrs by ELISA; type: functional, cell-based
# RAW264.7 [6] = experiment: Trans-suppression of NFkappaB in mouse RAW264.7 cells assessed as LPS-induced IKB-apha degradation at 10 uM preincubated for 3 hrs followed by LPS-stimulation and measured after 1 hr by Western blot analysis (reference value: 0.29); type: cell-based
# RAW264.7 [7] = experiment: Antiinflammatory activity against mouse RAW264.7 cells assessed as LPS-induced INOS mRNA expression at 2.5 uM preincubated for 3 hrs followed by LPS-stimulation and measured after 24 hrs by RT-PCR analysis (reference value: 8.2); type: functional
# RAW264.7 [8] = experiment: Trans-suppression of NFkappaB in mouse RAW264.7 cells assessed as LPS-induced IKB-apha phosphorylation at 5 uM preincubated for 3 hrs followed by LPS-stimulation and measured after 1 hr by Western blot analysis (reference value: 6.04); type: cell-based
# RAW264.7 [9] = experiment: Inhibition of LPS-induced JNK protein expression in mouse RAW264.7 cell at 5 uM preincubated for 3 hrs followed by LPS-stimulation and measured after 1 hr by Western blot analysis (reference value: 1.21); type: functional
# RAW264.7 [10] = experiment: Trans-suppression of NFkappaB in mouse RAW264.7 cells assessed as LPS-induced nuclear-p65 level at 10 uM preincubated for 3 hrs followed by LPS-stimulation and measured after 1 hr by Western blot analysis (reference value: 3.3); type: cell-based
# RAW264.7 [11] = experiment: Trans-suppression of NFkappaB in mouse RAW264.7 cells assessed as LPS-induced nuclear-p50 level at 5 uM preincubated for 3 hrs followed by LPS-stimulation and measured after 1 hr by Western blot analysis (reference value: 3.2); type: cell-based
# RAW264.7 [12] = experiment: Trans-suppression of NFkappaB in mouse RAW264.7 cells assessed as LPS-induced nuclear-p50 level at 2.5 uM preincubated for 3 hrs followed by LPS-stimulation and measured after 1 hr by Western blot analysis (reference value: 3.2); type: cell-based
# RAW264.7 [13] = experiment: Antiinflammatory activity against mouse RAW264.7 cells assessed as LPS-induced COX-2 mRNA expression at 5 uM preincubated for 3 hrs followed by LPS-stimulation and measured after 24 hrs by RT-PCR analysis (reference value: 14.39); type: functional
# RAW264.7 [14] = experiment: Trans-suppression of NFkappaB in mouse RAW264.7 cells assessed as LPS-induced IKB-apha phosphorylation at 10 uM preincubated for 3 hrs followed by LPS-stimulation and measured after 1 hr by Western blot analysis (reference value: 6.04); type: cell-based
# RAW264.7 [15] = experiment: Trans-suppression of NFkappaB in mouse RAW264.7 cells assessed as LPS-induced nuclear-p50 level at 10 uM preincubated for 3 hrs followed by LPS-stimulation and measured after 1 hr by Western blot analysis (reference value: 3.2); type: cell-based
# RAW264.7 [16] = experiment: Inhibition of LPS-induced JNK phosphorylation in mouse RAW264.7 cell at 5 uM preincubated for 3 hrs followed by LPS-stimulation and measured after 1 hr by Western blot analysis (reference value: 8.88); type: cell-based
# RAW264.7 [17] = experiment: Trans-suppression of NFkappaB in mouse RAW264.7 cells assessed as LPS-induced IKB-apha degradation at 2.5 uM preincubated for 3 hrs followed by LPS-stimulation and measured after 1 hr by Western blot analysis (reference value: 0.29); type: cell-based
# RAW264.7 [18] = experiment: Antiinflammatory activity against mouse RAW264.7 cells assessed as reduction in LPS-induced IL-1beta mRNA expression preincubated for 3 hrs followed by LPS-stimulation and measured after 12 hrs by RT-PCR analysis; type: functional, cell-based
# RAW264.7 [19] = experiment: Inhibition of LPS-induced JNK phosphorylation in mouse RAW264.7 cell at 2.5 uM preincubated for 3 hrs followed by LPS-stimulation and measured after 1 hr by Western blot analysis (reference value: 8.88); type: cell-based
# [20] = target: T1, MAP kinase p38 (Mus musculus) (UniProt P47811+O08911+Q9WUI1+Q9Z1B7); experiment: Inhibition of LPS-induced p38 MAPK phosphorylation in mouse RAW264.7 cell at 2.5 uM preincubated for 3 hrs followed by LPS-stimulation and measured after 1 hr by Western blot analysis (reference value: 5.59); type: cell-based
# RAW264.7 [21] = experiment: Inhibition of LPS-induced JNK phosphorylation in mouse RAW264.7 cell at 10 uM preincubated for 3 hrs followed by LPS-stimulation and measured after 1 hr by Western blot analysis (reference value: 8.88); type: cell-based
# [22] = target: T1, MAP kinase p38 (Mus musculus); experiment: Inhibition of LPS-induced p38 MAPK phosphorylation in mouse RAW264.7 cell at 10 uM preincubated for 3 hrs followed by LPS-stimulation and measured after 1 hr by Western blot analysis (reference value: 5.59); type: cell-based
# RAW264.7 [23] = experiment: Trans-suppression of NFkappaB in mouse RAW264.7 cells assessed as LPS-induced cytosol-p50 level at 2.5 uM preincubated for 3 hrs followed by LPS-stimulation and measured after 1 hr by Western blot analysis (reference value: 0.28); type: cell-based
# RAW264.7 [24] = experiment: Antiinflammatory activity against mouse RAW264.7 cells assessed as LPS-induced INOS mRNA expression at 10 uM preincubated for 3 hrs followed by LPS-stimulation and measured after 24 hrs by RT-PCR analysis (reference value: 8.2); type: functional
# RAW264.7 [25] = experiment: Trans-suppression of NFkappaB in mouse RAW264.7 cells assessed as LPS-induced cytosol-p65 level at 5 uM preincubated for 3 hrs followed by LPS-stimulation and measured after 1 hr by Western blot analysis (reference value: 0.09); type: cell-based
# RAW264.7 [26] = experiment: Inhibition of LPS-induced ERK protein expression in mouse RAW264.7 cell at 10 uM preincubated for 3 hrs followed by LPS-stimulation and measured after 1 hr by Western blot analysis (reference value: 1.13); type: functional
structure (smiles),measurement,setting,value
COc1cc(OC)c2c(O)c3c(=O)cc(C)oc3c(-c3c(O)cc4cc(O)c5c(=O)cc(C)oc5c4c3OC)c2c1 (atropisomer aS) [ASPERPYRONE A],fold change (FC),RAW264.7 [1],1.12
same,fold change (FC),RAW264.7 [2],2.57
same,fold change (FC),RAW264.7 [3],1.05
same,fold change (FC),RAW264.7 [4],7.03
same,inhibition,RAW264.7 [5],Dose-dependent effect
same,fold change (FC),RAW264.7 [6],0.81
same,fold change (FC),RAW264.7 [7],8.48
same,fold change (FC),RAW264.7 [8],3.21
same,fold change (FC),RAW264.7 [9],1.16
same,fold change (FC),RAW264.7 [10],1.54
same,fold change (FC),RAW264.7 [11],1.28
same,fold change (FC),RAW264.7 [12],1.99
same,fold change (FC),RAW264.7 [13],7.56
same,fold change (FC),RAW264.7 [14],2.3
same,fold change (FC),RAW264.7 [15],0.89
same,fold change (FC),RAW264.7 [16],4.02
same,fold change (FC),RAW264.7 [17],0.31
same,Activity,RAW264.7 [18],Dose-dependent effect
same,fold change (FC),RAW264.7 [19],8.73
same,fold change (FC),[20],5.63
same,fold change (FC),RAW264.7 [21],3.08
same,fold change (FC),[22],5.66
same,fold change (FC),RAW264.7 [23],0.55
same,fold change (FC),RAW264.7 [24],1.03
same,fold change (FC),RAW264.7 [25],0.78
same,fold change (FC),RAW264.7 [26],1.1
